Test results taken from the supplement of paper PMC8967900.

Columns and labels:
Assay in all cases: selective drug sensitivity score (sDSS, relative to normal bone marrow) (sDSS (score)); higher = more potent and effective on the cell line relative to normal bone marrow cells
Settings in all cases: 72 h
[1] = system: MHH-CALL-3
[2] = system: RCH-ACV
[3] = system: MHH-CALL-2
[4] = system: MOLT-16
[5] = system: CCRF-HSB2
[6] = system: TANOUE
[7] = system: PF-382
[8] = system: ALL-SIL
[9] = system: JURKAT
[10] = system: NALM-16
[11] = system: COG-LL-402h
[12] = system: KASUMI-9
[13] = system: COG-LL-355h
[14] = system: COG-LL-319h
[15] = system: PEER
[16] = system: 697
[17] = system: COG-LL-317
[18] = system: KASUMI-2
[19] = system: SEM cells
[20] = system: COG-LL-394h
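Further: ALL cell lines in 384-well plates, five doses spanning 10,000-fold, each plate scaled between vehicle and 100 µmol/L benzalkonium chloride controls, sDSS an adapted area-under-curve metric.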

SMILES	selective drug sensitivity score [1]	selective drug sensitivity score [2]	selective drug sensitivity score [3]	selective drug sensitivity score [4]	selective drug sensitivity score [5]	selective drug sensitivity score [6]	selective drug sensitivity score [7]	selective drug sensitivity score [8]	selective drug sensitivity score [9]	selective drug sensitivity score [10]	selective drug sensitivity score [11]	selective drug sensitivity score [12]	selective drug sensitivity score [13]	selective drug sensitivity score [14]	selective drug sensitivity score [15]	selective drug sensitivity score [16]	selective drug sensitivity score [17]	selective drug sensitivity score [18]	selective drug sensitivity score [19]	selective drug sensitivity score [20]
O=C(/C=C\n1cnc(-c2cc(C(F)(F)F)cc(C(F)(F)F)c2)n1)NNc1ccccn1 [Verdinexor] (top concentration 1000 nM)	20.5	9.04	1.84	11.1	9.84	-6.96	6.54	3.74	8.74	-0.36	9.34	3.74	8.54	11.3	5.44	6.34	12.5	12.9	0.34	3.64
CCC(C)n1ncn(-c2ccc(N3CCN(c4ccc(OCC5COC(Cn6cncn6)(c6ccc(Cl)cc6Cl)O5)cc4)CC3)cc2)c1=O (stereo not given) [Itraconazole] (top concentration 5000 nM)	-4.32	5.48	5.48	2.38	2.08	-2.92	0.38	2.88	1.58	-4.32	-2.12	-4.12	-4.22	10.7	0.88	0.18	-2.12	-3.22	-2.32	1.88
O=C(NOC[C@H](O)CO)c1ccc(F)c(F)c1Nc1ccc(I)cc1F (top concentration 1000 nM)	14.9	-1.96	-0.36	-1.36	0.44	-2.46	-2.36	3.54	-3.96	2.74	1.84	4.44	6.94	2.44	0.94	0.14	-1.66	10.1	-3.16	-0.26
CC(C)C[C@H](NC(=O)[C@H](Cc1ccccc1)NC(=O)c1cnccn1)B(O)O [Bortezomib] (top concentration 1000 nM)	2.72	3.42	3.82	2.02	5.82	-9.68	1.82	4.72	1.72	2.32	1.32	3.22	5.92	4.02	2.32	2.62	3.02	1.42	12.9	2.42
O=C(c1ccc(F)c(F)c1Nc1ccc(I)cc1F)N1CC(O)([C@@H]2CCCCN2)C1 [Cobimetinib] (top concentration 1000 nM)	6.22	-3.68	0.42	-3.68	-0.28	-3.68	-3.28	-2.98	-3.68	-1.38	-0.98	-2.38	5.02	-1.28	-2.78	-2.58	-3.68	4.22	-2.48	-2.48
CO[C@@H](C)Cn1c(=O)n(C)c2cnc3ccc(-c4cncc(C(C)(C)O)c4)cc3c21 (top concentration 2500 nM)	-1.42	17.6	6.98	11.9	5.58	-5.12	5.88	4.78	2.98	-0.52	5.48	8.68	3.88	5.48	3.38	9.78	0.78	12.3	5.08	-1.82
C[C@H](Nc1ncnc2[nH]cnc12)c1cc2ccc(F)cc2nc1-c1ccccn1 [AMG319] (top concentration 1000 nM)	-0.42	19.3	-1.42	-1.42	-1.32	-0.12	-1.42	-1.42	-1.42	-1.42	5.88	1.18	4.58	10.1	-1.42	0.18	-1.42	7.58	-1.42	-1.42
CC[C@@H]1C(=O)N(C)c2cnc(Nc3ccc(C(=O)N[C@H]4CC[C@H](N5CCN(CC6CC6)CC5)CC4)cc3OC)nc2N1C(C)C [Volasertib] (top concentration 1000 nM)	2.9	13.9	10.6	12.7	12.4	-7	13.6	12.7	11.7	11.3	11	18.5	6.4	14.9	18.7	12.1	16.7	5.7	21.4	7.7
COc1cc(OC)c(/C=C/S(=O)(=O)Cc2ccc(OC)c(NCC(=O)O)c2)c(OC)c1 [Rigosertib] (top concentration 10000 nM)	13.4	17.3	15.2	18.8	14.6	-5.04	10.9	13.1	14.4	12.8	14.2	18.3	4.16	4.96	15.9	17	14.3	14.6	17.3	6.76
CCN(CC)CCCC(C)Nc1c2ccc(Cl)cc2nc2ccc(OC)cc12 (stereo not given) [Mepacrine] (top concentration 50000 nM)	-1.2	-4.5	-5.6	-0.8	-4.8	-10.8	-4.6	-7.3	-7.7	-7.9	2.7	-3.6	-3.3	-2.9	-5.9	-3.7	-0.5	-9.5	-0.1	-5.7
COc1ccc(-c2ccc3ncc4c(c3c2)n(-c2ccc(N3CCNCC3)c(C(F)(F)F)c2)c(=O)n4C)cn1 [NVP-BGT226] (top concentration 1000 nM)	0.62	20.1	3.92	12.2	5.82	-3.58	6.02	2.82	2.82	-0.18	5.92	8.42	6.42	0.72	3.42	14.2	0.72	7.92	6.82	-0.48
CC(=O)N(O)CCCCCNC(=O)CCC(=O)N(O)CCCCCNC(=O)CCC(=O)N(O)CCCCCN [Deferoxamine] (top concentration 10000 nM)	-0.54	3.86	7.66	6.26	4.86	3.46	4.66	3.56	2.26	4.66	5.76	1.16	1.46	7.86	2.16	6.26	18.4	-0.74	2.66	0.76
CO[C@H]1C(=O)[C@]2(C)[C@@H](OC)C[C@H]3OC[C@@]3(OC(C)=O)[C@H]2[C@H](OC(=O)c2ccccc2)[C@]2(O)C[C@H](OC(=O)[C@H](O)[C@@H](NC(=O)OC(C)(C)C)c3ccccc3)C(C)=C1C2(C)C [Cabazitaxel] (top concentration 1000 nM)	6.78	22.9	15.9	26.7	21.1	-11.5	10.9	19.3	18.3	11.4	17.1	18.7	2.58	16.9	23	23.7	26.2	17.5	19.5	6.08
C[C@@H](Oc1cc(-n2cnc3ccc(CN4CCN(C)CC4)cc32)sc1C(N)=O)c1ccccc1C(F)(F)F (top concentration 10000 nM)	8.92	20.9	18.4	20.2	24.2	-11.2	26.7	23.4	22.8	17.4	16.2	26	5.62	14.7	30	20.5	25.4	15	28.3	3.22
Cc1cccc(CC(=O)N2CCc3c2ccc(-c2cn(C)c4ncnc(N)c24)c3F)n1 (top concentration 2500 nM)	-0.68	7.02	5.02	5.62	2.82	2.52	3.72	0.32	8.22	-0.68	-0.68	2.92	-0.28	0.52	7.02	3.42	-0.68	-0.68	0.32	5.42
C1=N/C2=N/c3ccc(OCCN4CCCC4)c(c3)COC/C=C/COCc3cccc(c3)C(=C1)N2 [Pacritinib] (top concentration 10000 nM)	-7.7	9.2	-7.9	-5.6	-3.5	-8.4	-7.5	-3.6	-8	-8.2	2.9	-0.9	2.9	0	-5.6	-2.6	-8.3	-2.3	1.5	-4
C=CCn1c(=O)c2cnc(Nc3ccc(N4CCN(C)CC4)cc3)nc2n1-c1cccc(C(C)(C)O)n1 [AZD1775] (top concentration 10000 nM)	5.64	17.2	10.5	17.5	13.6	-1.66	12.4	10	11.3	6.64	10.2	14.6	7.24	18.8	12.2	15.4	20.5	4.94	14.1	5.54
CCOC(=O)CCNc1cc(N2CCc3ccccc3CC2)nc(-c2ccccn2)n1 [GSK-J4] (top concentration 100000 nM)	-13.2	-8.58	-7.18	-5.48	-7.18	-11.6	-7.58	-4.58	-5.98	-8.38	-7.88	-7.88	-4.78	3.22	-5.48	-8.08	-2.78	-10.8	-8.58	-9.68
